Assay results taken from ChEMBL document CHEMBL1201862, “PubChem BioAssay data set” (2004).
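Step 1: Grow cells in 96-well plates. Step 2: Expose to compound for 48 hours at 5 concentrations. Step 3: Interpolate endpoints linearly; if unreached, use highest concentration. GI50 is the concentration that inhibits growth by half.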 Activity calls are given as the source filed them. Cut-off read from the data, not from the text of the source: active = GI50 up to about 1.1 µM and inactive = higher.

Key:
Test in all cases: inhibition of tumour cell growth, NCI panel, 48 h
K562 = tested on: K562
BT-549 = tested on: BT-549
786-0 = tested on: 786-0
NCI-H226 = tested on: NCI-H226
UO-31 = tested on: UO-31
OVCAR-4 = tested on: OVCAR-4
NCI-H460 = tested on: NCI-H460
HOP-62 = tested on: HOP-62
SF-539 = tested on: SF-539
EKVX = tested on: EKVX
SW-620 = tested on: SW-620
OVCAR-5 = tested on: OVCAR-5
M14 = tested on: M14
UACC-62 = tested on: UACC-62
SNB-19 = tested on: SNB-19
HOP-92 = tested on: HOP-92
A498 = tested on: A498
SK-MEL-2 = tested on: SK-MEL-2
KM12 = tested on: KM12

Structure (SMILES)	GI50 (K562)	GI50 (BT-549)	GI50 (786-0)	GI50 (NCI-H226)	GI50 (UO-31)	GI50 (OVCAR-4)	GI50 (NCI-H460)	GI50 (HOP-62)	GI50 (SF-539)	GI50 (EKVX)	GI50 (SW-620)	GI50 (OVCAR-5)	GI50 (M14)	GI50 (UACC-62)	GI50 (SNB-19)	GI50 (HOP-92)	GI50 (A498)	GI50 (SK-MEL-2)	GI50 (KM12)
Cc1ccc(C(=O)Cc2nc3ncccc3[nH]c2=O)cc1	> 100 µM (inactive)	43.7 µM (inactive)	22.5 µM (inactive)	24.9 µM (inactive)	32.1 µM (inactive)	25.7 µM (inactive)	45.4 µM (inactive)	26 µM (inactive)	30.5 µM (inactive)	33.2 µM (inactive)	80 µM (inactive)	81.5 µM (inactive)	82.8 µM (inactive)	49.8 µM (inactive)	6.15 µM (inactive)	14.6 µM (inactive)	> 100 µM (inactive)	> 100 µM (inactive)	43.4 µM (inactive)
CCC(NC1=NCCO1)c1cccs1 (stereo not drawn)	5.55 µM (inactive)	20.1 µM (inactive)	15.3 µM (inactive)	20.3 µM (inactive)	18.7 µM (inactive)	23.9 µM (inactive)	15.7 µM (inactive)		15.5 µM (inactive)	16.5 µM (inactive)	24.3 µM (inactive)	17 µM (inactive)	19 µM (inactive)	16 µM (inactive)	16.3 µM (inactive)	17.4 µM (inactive)	22.3 µM (inactive)	15.5 µM (inactive)	18 µM (inactive)
CC(=O)Nc1n[n+]([O-])c2cc(C)ccc2[n+]1[O-]	1.94 µM (inactive)	3.39 µM (inactive)	3.26 µM (inactive)	4.32 µM (inactive)	3.38 µM (inactive)	4.38 µM (inactive)	0.378 µM (active)	2.89 µM (inactive)	1.99 µM (inactive)	4.79 µM (inactive)	2.41 µM (inactive)	12 µM (inactive)	2.42 µM (inactive)	1.78 µM (inactive)	4.98 µM (inactive)	1.01 µM (active)	5.22 µM (inactive)	3.81 µM (inactive)	3.68 µM (inactive)
Clc1nc2c(-c3cccs3)ncnc2n1Cc1ccccc1	57.3 µM (inactive)	25.8 µM (inactive)	19.5 µM (inactive)	15.8 µM (inactive)	0.435 µM (active)	44.9 µM (inactive)	37.9 µM (inactive)	47.6 µM (inactive)	40 µM (inactive)	21.4 µM (inactive)	> 30.3 µM (inactive)	> 94.2 µM (inactive)	66.8 µM (inactive)	72.3 µM (inactive)	27.4 µM (inactive)	9.44 µM (inactive)	19.4 µM (inactive)	63.2 µM (inactive)	15.9 µM (inactive)
NCCSC(c1ccccc1)c1ccccc1		43.8 µM (inactive)	17.5 µM (inactive)	31.2 µM (inactive)	15 µM (inactive)	20.4 µM (inactive)	15.1 µM (inactive)	17.5 µM (inactive)	20.7 µM (inactive)	30.7 µM (inactive)	18.5 µM (inactive)	17.2 µM (inactive)	14.7 µM (inactive)	17 µM (inactive)	51.9 µM (inactive)	10.6 µM (inactive)	22.4 µM (inactive)	18.4 µM (inactive)	19.7 µM (inactive)
COc1ccc2oc(C(=O)N3CC(CCl)c4ccc([N+](=O)[O-])cc43)cc2c1 (stereo not drawn)	> 100 µM (inactive)	42.3 µM (inactive)	16.2 µM (inactive)	0.664 µM (active)	4.45 µM (inactive)	15.2 µM (inactive)	31.3 µM (inactive)	12.4 µM (inactive)	14 µM (inactive)	15.8 µM (inactive)	> 100 µM (inactive)		89.9 µM (inactive)	41.9 µM (inactive)	25.2 µM (inactive)	26.1 µM (inactive)	18.9 µM (inactive)	26.4 µM (inactive)	0.381 µM (active)
Cc1cn2cc(-c3cccs3)nc2s1	99.3 µM (inactive)	> 100 µM (inactive)	> 100 µM (inactive)	> 24.6 µM (inactive)	48.8 µM (inactive)	> 100 µM (inactive)	> 100 µM (inactive)	> 100 µM (inactive)	> 100 µM (inactive)	> 65.8 µM (inactive)	> 100 µM (inactive)	> 100 µM (inactive)	> 78.3 µM (inactive)	> 100 µM (inactive)	> 100 µM (inactive)	> 71.8 µM (inactive)	27.2 µM (inactive)	> 100 µM (inactive)	43.9 µM (inactive)
CN(Cc1cnc2c(n1)C(N)=NN(N)N2)c1ccc(C(=O)NC(CCP(=O)(O)O)C(=O)O)cc1 (stereo not drawn)	> 100 µM (inactive)	16 µM (inactive)	1.86 µM (inactive)	> 35.1 µM (inactive)	> 19.9 µM (inactive)	> 100 µM (inactive)	1.87 µM (inactive)	> 100 µM (inactive)	3.47 µM (inactive)	> 43.3 µM (inactive)	1.53 µM (inactive)		4.53 µM (inactive)	1.78 µM (inactive)	> 30.7 µM (inactive)	> 100 µM (inactive)	36.5 µM (inactive)	> 100 µM (inactive)	5.14 µM (inactive)
Cc1ccc(NC(Nc2ccc(C)cc2C)=C(/C=C(\Cl)[N+](=O)[O-])[N+](=O)[O-])c(C)c1	1.46 µM (inactive)	3.46 µM (inactive)	2.81 µM (inactive)	7 µM (inactive)	5.9 µM (inactive)	3.69 µM (inactive)	16.6 µM (inactive)	17.7 µM (inactive)	8.85 µM (inactive)	15.2 µM (inactive)	1.91 µM (inactive)	4.36 µM (inactive)	2.21 µM (inactive)	3.3 µM (inactive)	12.9 µM (inactive)	1.45 µM (inactive)	18.2 µM (inactive)	4.23 µM (inactive)	10.4 µM (inactive)
CO/N=C(\C(=O)Nc1cncs1)c1csc(NC(c2ccccc2)(c2ccccc2)c2ccccc2)n1	> 10 µM (inactive)	> 10 µM (inactive)	> 10 µM (inactive)	> 10 µM (inactive)	4.37 µM (inactive)	> 10 µM (inactive)	4.56 µM (inactive)	> 10 µM (inactive)	0.628 µM (active)	6.12 µM (inactive)	> 10 µM (inactive)	> 10 µM (inactive)	> 10 µM (inactive)		> 10 µM (inactive)	> 10 µM (inactive)	> 10 µM (inactive)	> 10 µM (inactive)	9.4 µM (inactive)
O=C1NC(O)c2ccccc2O1 (stereo not drawn)	> 100 µM (inactive)	> 100 µM (inactive)	> 100 µM (inactive)	> 100 µM (inactive)	> 100 µM (inactive)	> 100 µM (inactive)	> 100 µM (inactive)	> 100 µM (inactive)	> 100 µM (inactive)	> 100 µM (inactive)	> 100 µM (inactive)	> 100 µM (inactive)	> 100 µM (inactive)	> 100 µM (inactive)	> 100 µM (inactive)	> 100 µM (inactive)	> 100 µM (inactive)	> 100 µM (inactive)	> 100 µM (inactive)
CC(C)(C)c1cc(-c2cc(C(C)(C)C)[nH]n2)[nH]n1	47.5 µM (inactive)	> 100 µM (inactive)	> 100 µM (inactive)	> 100 µM (inactive)	> 100 µM (inactive)	> 100 µM (inactive)	> 100 µM (inactive)	> 100 µM (inactive)	> 100 µM (inactive)	> 100 µM (inactive)	> 100 µM (inactive)	> 100 µM (inactive)	> 100 µM (inactive)	> 100 µM (inactive)	> 100 µM (inactive)	> 100 µM (inactive)	> 100 µM (inactive)	> 100 µM (inactive)	
COc1ccc2c(c1)/c(=C/C#N)c1c3ccccc3[n+](C)n21	8.69 µM (inactive)	9.08 µM (inactive)	3.95 µM (inactive)	4.29 µM (inactive)	16.7 µM (inactive)	4.37 µM (inactive)	7.23 µM (inactive)	5.73 µM (inactive)	0.767 µM (active)	2.69 µM (inactive)	4.13 µM (inactive)	8.63 µM (inactive)	6.87 µM (inactive)	13.6 µM (inactive)	7.16 µM (inactive)	1.16 µM (inactive)	1.7 µM (inactive)	14.5 µM (inactive)	6.04 µM (inactive)
COC(=O)C(CNC(=O)/C=C/c1ccc(OC)c(OC)c1)NC(=O)/C=C/c1ccc(OC)c(OC)c1 (stereo not drawn)	> 100 µM (inactive)	> 100 µM (inactive)	> 100 µM (inactive)	> 100 µM (inactive)	> 100 µM (inactive)	> 100 µM (inactive)	45.2 µM (inactive)	> 100 µM (inactive)	> 100 µM (inactive)	> 100 µM (inactive)	> 100 µM (inactive)	> 100 µM (inactive)	> 100 µM (inactive)	> 100 µM (inactive)	> 100 µM (inactive)	> 100 µM (inactive)	> 100 µM (inactive)	> 100 µM (inactive)	> 100 µM (inactive)
O=C(O)c1ccccc1CC(Cc1ccccc1)C(=O)O (stereo not drawn)	> 100 µM (inactive)	> 100 µM (inactive)	> 100 µM (inactive)	> 100 µM (inactive)	> 100 µM (inactive)	> 100 µM (inactive)	> 100 µM (inactive)	> 100 µM (inactive)	> 100 µM (inactive)	> 100 µM (inactive)	> 100 µM (inactive)	> 100 µM (inactive)	> 100 µM (inactive)		> 100 µM (inactive)	> 100 µM (inactive)	> 100 µM (inactive)	> 100 µM (inactive)	> 100 µM (inactive)
